For one cell line, relative viability results are on record in the supplement of paper PMC10307832.

Holding throughout (test): relative viability (nuclei count vs DMSO), 5 days (fraction); higher = more cells survive
Compound in the test “Tanzisertib + Phenformin”: O[C@H]1CC[C@H](Nc2ncc3nc(Nc4c(F)cc(F)cc4F)n([C@H]4CCOC4)c3n2)CC1 [Tanzisertib] + N=C(N)NC(=N)NCCc1ccccc1 [Phenformin] (partner 250 µM)
In outline: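 Lung cancer cell lines, seeded in 1536-well plates, were treated the following day by pin tool with a single drug or with five library-drug doses (not always all listed) in √10 steps on top of a fixed anchor-drug dose. Cells were fixed and nuclei stained in one step after 5 days, and nuclei were counted. Relative viability is the nuclei count for treated wells divided by that for vehicle wells, reported as medians of duplicate plates.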

Compound in another test: O[C@H]1CC[C@H](Nc2ncc3nc(Nc4c(F)cc(F)cc4F)n([C@H]4CCOC4)c3n2)CC1 [Tanzisertib]
In outline:
(§1)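 Lung cancer cell lines in 1536-well plates were kept overnight at 37 °C, then pinned with five library-drug doses (not always all listed) spaced by √10 on vehicle-anchored plates. After 5 days without medium change, cells were fixed, permeabilised and Hoechst-stained in one step, imaged at 4×, and nuclei were counted with MetaXpress. Viability is treated-well nuclei divided by vehicle-well nuclei, taken as the median over plates. Plates passed only with control CV below 25% and at least one doubling.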

Compound in test [1]: C[C@@H](N)c1ccc(C(=O)Nc2ccnc3[nH]ccc23)cc1
In outline:
as §1

Compound in test [2]: C1CNCCC1C2=CC(=NN2)C3=CC=NC=C3
In outline:
as §1

Regarding UMC-11, the relative viability in the test with Tanzisertib + Phenformin (first compound 0.08 µM) was 0.339; with Tanzisertib + Phenformin (first compound 0.253 µM), 0.35; in the test with Tanzisertib + Phenformin (first compound 0.8 µM) it was 0.342; with Tanzisertib + Phenformin (first compound 2.53 µM), 0.351; with Tanzisertib + Phenformin (first compound 8 µM), 0.37; in the test with Tanzisertib (0.08 µM), 1.09. The relative viability is 0.973 in the test with Tanzisertib (0.253 µM); 1.01 with Tanzisertib (0.8 µM); 0.987 with Tanzisertib (2.53 µM); 1.01 in the test with Tanzisertib (8 µM); 0.954 in test [1] (0.04 µM); 1.07 in test [1] (0.1265 µM). For the same cell line, the relative viability in test [1] (0.4 µM) stood at 1.16; in test [1] (1.265 µM), 0.712; in test [1] (4 µM), 0.784; in test [2] (0.08 µM), 0.862; in test [2] (0.8 µM) it was 1.16; in test [2] (2.53 µM), 1.01. Moreover, the relative viability in test [2] (8 µM) turned out to be 0.992.
